Experimental findings from patent publication US20250129012A1, “ANTI-INFLAMMATORY AND ANALGESIC COMPOUNDS AND USE THEREOF” (JIANGSU ATOM BIOSCIENCE AND PHARMACEUTICAL CO., LTD., priority 2021, published 2025) are described below.

Marks after values point to notes of the source that are not given here.

Format in all cases: in vivo, SD rats
In assay [1] the test system is gouty arthritis in rats (urate crystals, left ankle joint). Description: Pharmacodynamics experiment A on gouty arthritis in rats: paw volume. The settings on record: for Paw volume versus model group, in words: time points after modeling; for Paw volume: Mean ± SEM. The procedure:
(§1) Compounds 2, 17, 26 and 27 were prepared by grinding with 0.5% CMC-Na into a suspension of the corresponding concentration (0.06 mg/mL) for gavage before administration, and the volume of administration was 10 mL/kg. […] Before use, 0.5% CMC-Na was used for grinding and prepared into a suspension of the corresponding concentration (0.06 mg/mL) for gavage, and the volume of drug administered was 10 mL/kg.
(§2) Each group of subjects was prepared into a suspension of the corresponding concentration, and the administration volume was 10 mL/kg.
(§3) The crystalline arthritis model was prepared by intra-articular injection of urate crystals (40 mg/mL, in the left ankle joint of each rat). Different doses of the test drug were given separately by gavage administration. The day of administration was defined as day 1 of the experiment, and the drug was administered once a day for 10 consecutive days (pre-administration of the drug for 7 days prior to modeling, modeling on day 8, and continuation of the drug for 3 days). The experiment ended on day 10.
Paw volume was measured before administration, before urate injection, and 2, 4, 8, 10, 24, and 48 h after injection.
(§4) The data obtained from the experiment were statistically analyzed using IBM SPSS Statistics 22.0. All measurements were expressed as Mean±S.E.M s. The data were analyzed using SPSS 22.0 statistical software and variance chi-square test was performed on the parameters.

For assay [2] the test system is unchanged. Description: Pharmacodynamics experiment A on gouty arthritis in rats: gait score. Set-up: Gait Score: scale not given here. To be noted: 0.6 mg/kg gavage; for Gait versus model group, in words: time points after modeling, P<0.05 or P<0.01; for Gait Score: Mean ± SEM. The procedure: as §1, §2, §3
The degree of lameness of the modeled joints was observed and scored at the same time point.
as §4

For assay [3] the test system is unchanged. Description: Pharmacodynamics experiment A on gouty arthritis in rats: pain score. Also noted: Pain score: scale not given here. To be noted: 0.6 mg/kg gavage; for Pain versus model group, in words: time points after modeling, P<0.05 or P<0.01; for Pain score: Mean ± SEM. The procedure: as §1, §2, §3
The pain level was scored using the flexion and extension joint pain test scoring method at the same time point.
as §4

For the next assay, the system named is TNF-α. Description: Inflammatory factor experiment A: TNF-α in gouty arthritis rats. To be noted: synovial tissue of knee joints; dose 0.6 mg/kg gavage; day 10. The method, then: (§5) Compounds 14, 17 and 26 were prepared by grinding with 0.5% CMC-Na before administration and into a suspension for gavage at the corresponding concentration (0.06 mg/mL), with a dosage volume of 10 mL/kg. Colchicine, purchased from Sun Chemical Technology (Shanghai) Co., Ltd. with batch no. 49ETRRAS, and was prepared by grinding with 0.5% CMC-Na before administration and into a suspension for gavage at the corresponding concentration (0.06 mg/mL), with a dosage volume of 10 mL/kg.
(§6) The compounds in each group were prepared into a suspension of the corresponding concentration, and the dosage volume was 10 mL/kg.
(§7) The crystalline arthritis model was prepared by intra-articular injection of urate crystals (40 mg/mL in the left ankle joint of each rat). Different doses of the test compounds were given separately by gavage administration. The day of administration was defined as day 1 of the experiment, and the compounds were administered once a day for 10 consecutive days (pre-administration of the drug for 7 days prior to modeling, modeling on day 8, and continuation of the drug for 3 days). The experiment ended on day 10. […]

In another assay the test system is IL-6. In words: Inflammatory factor experiment A: IL-6 in gouty arthritis rats. To be noted: synovial tissue of knee joints; dose 0.6 mg/kg gavage; day 10. The method, then: as §5, §6, §7
[4] abbreviates: 2 h after modeling, 0.6 mg/kg gavage.
The mark [5] stands for this setting: 4 h after modeling, 0.6 mg/kg gavage.
Where [6] appears, read: 8 h after modeling, 0.6 mg/kg gavage.
The mark [7] stands for this setting: 10 h after modeling, 0.6 mg/kg gavage.
[8] abbreviates: 24 h after modeling, 0.6 mg/kg gavage.
Setting [9] is: 48 h after modeling, 0.6 mg/kg gavage.
Where [10] appears, read: before modeling, 0.6 mg/kg gavage once a day.

In the case of `COc1cc2c(c(OC)c1OC)-c1cc(C)c(=O)c(OC)cc1[C@@H](NC(C)=O)CC2` [Compound 17, (S)—N-(1,2,3,9-tetramethoxy-11-methyl-10-oxo-5,6,7,10-tetrahydrobenzo[a]heptalen-7-yl)acetamide], the “Paw volume versus model group, in words” value in assay [1] (0.6 mg/kg gavage) is “significantly reduce the paw volume at 2 h, 8 h, 24 h, and 48 h”. Besides, the Paw volume is given as 2.54 ± 0.02** cm^3 in assay [1] (setting [4]); 2.58 ± 0.02 cm^3 in assay [1] (setting [5]); 2.54 ± 0.04* cm^3 in assay [1] (setting [6]); 2.55 ± 0.03 cm^3 in assay [1] (setting [7]); 2.41 ± 0.05** cm^3 in assay [1] (setting [8]); 2.23 ± 0.03*** cm^3 in assay [1] (setting [9]). In addition, the Paw volume in assay [1] (setting [10]) turned out to be 2.19 ± 0.03 cm^3. Also, the “Gait versus model group, in words” value in assay [2] was “significantly improved the gait at 2 h, 8 h, and 24 h”. In addition, the Gait Score is on record as 1.00 ± 0.00 in assay [2] (2 h after modeling); 1.20 ± 0.13 in assay [2] (4 h after modeling); 1.00 ± 0.00 in assay [2] (8 h after modeling); 1.10 ± 0.10 in assay [2] (10 h after modeling); 1.10 ± 0.10 in assay [2] (24 h after modeling); 1.10 ± 0.10 in assay [2] (48 h after modeling). The Gait Score in assay [2] (before modeling) was found to be 0.00 ± 0.00. Also, in assay [3], the “Pain versus model group, in words” value is “significantly improved gait at 2 h, 8 h, and 24 h”. Further, the Pain score in assay [3] (2 h after modeling) is listed as 3.10 ± 0.64; in assay [3] (4 h after modeling), 3.20 ± 0.66; in assay [3] (8 h after modeling) it was 3.00 ± 0.68; in assay [3] (10 h after modeling), 3.30 ± 0.54; in assay [3] (24 h after modeling) it was 1.30 ± 0.65; in assay [3] (48 h after modeling) it was 1.60 ± 0.70. The same molecule registered a Pain score in assay [3] (before modeling) of 0.00 ± 0.00. Besides, the “Decreased TNF-α percentage %” value in the assay on TNF-α was 107.16%. In the assay with IL-6, the “Decreased IL-6 percentage %” value was 132.54%.
`COc1cc2c(c(OC)c1OC)-c1ccc(OC3CCOC3)c(=O)cc1[C@@H](NC(C)=O)CC2` (stereo partly drawn) [Compound 26, (S)—N-(1,2,3-trimethoxy-9-oxo-10-[(tetrahydrofuran-3-yl)oxy]-5,6,7,9-tetrahydrobenzo[a]heptalen-7-yl)acetamide]: the “Paw volume versus model group, in words” value in assay [1] (0.6 mg/kg gavage) was “significantly reduce the paw volume at 2 h, 4 h, and 48 h”. Further, the Paw volume is listed as 2.53 ± 0.04* cm^3 in assay [1] (setting [4]); 2.54 ± 0.03* cm^3 in assay [1] (setting [5]); 2.55 ± 0.04 cm^3 in assay [1] (setting [6]); 2.57 ± 0.05 cm^3 in assay [1] (setting [7]); 2.47 ± 0.06 cm^3 in assay [1] (setting [8]); 2.34 ± 0.07* cm^3 in assay [1] (setting [9]). For the same molecule, the Paw volume in assay [1] (setting [10]) worked out at 2.19 ± 0.04 cm^3. In addition, in assay [2], the “Gait versus model group, in words” value was “significantly improved the gait at 2 h, 8 h, and 24 h”. Also, the Gait Score in assay [2] (2 h after modeling) turned out to be 1.00 ± 0.00; in assay [2] (4 h after modeling), 1.10 ± 0.10; in assay [2] (8 h after modeling) it was 1.20 ± 0.13; in assay [2] (10 h after modeling) it was 1.30 ± 0.15; in assay [2] (24 h after modeling), 1.10 ± 0.10; in assay [2] (48 h after modeling), 1.10 ± 0.10. Further, the Gait Score in assay [2] (before modeling) was found to be 0.00 ± 0.00. The “Pain versus model group, in words” value in assay [3] was “significantly improved gait at 2 h”. Moreover, the Pain score in assay [3] (2 h after modeling) came out at 3.00 ± 0.56; in assay [3] (4 h after modeling), 2.90 ± 0.67; in assay [3] (8 h after modeling), 4.30 ± 0.40; in assay [3] (10 h after modeling) it was 3.80 ± 0.59; in assay [3] (24 h after modeling), 3.20 ± 0.51; in assay [3] (48 h after modeling), 2.20 ± 0.73. Moreover, in assay [3] (before modeling), the Pain score is reported as 0.00 ± 0.00. Also, the “Decreased TNF-α percentage %” value with TNF-α was 160.36%. In the assay on IL-6, the “Decreased IL-6 percentage %” value was found to be 113.37%.
Regarding `COc1cc2c(c(OC)c1OC)-c1cc(Br)c(OC)c(=O)cc1[C@@H](NC(C)=O)CC2` [Compound 14, (S)—N-(11-bromo-1,2,3,10-tetramethoxy-9-oxo-5,6,7,9-tetrahydrobenzo[a]heptalen-7-yl)acetamide], in the assay with TNF-α, the “Decreased TNF-α percentage %” value came to 125.78%. Besides, in the assay with IL-6, the “Decreased IL-6 percentage %” value is listed as 119.58%.
